From US20120270770A1, “Anti-angiogenic peptides and their uses” (priority 2010, published 2012)

What was measured:
[1] = system: Stage IV pancreatic cancer; assay: Treatment of a patient with Stage IV pancreatic cancer; type: in vivo, human; settings: one patient
Protocol: A diabetic since 12/01 was diagnosed with Stage IV pancreatic cancer in May 2002 with metastatic diseases in their liver. Median survival time of patients with Stage IV pancreatic cancer is 4.5 months. Median survival time of patients with Stage IV pancreatic cancer when treated with gemcitabine is 4.8 months. The longest anyone lived on gemcitabine treatment has been 19 months.
The patient of this case started JC15-10N peptide treatment on August 2002. The patient was given 0.5 mg/kg peptide sub-cutaneously. The patient weighted 128 lbs. and therefore they received 29 mg/injection per week. […] After receiving the peptide for more than 19 months, the patient was doing fine. The patient passed away from unrelated causes on July 2004.

HMEC-1 monolayer = assay: Endothelial cell migration assay (scraped HMEC-1 monolayer); type: cell-based; settings: for Endothelial Cell Migration: NT = 1.00
Protocol: The results in Table 6 are gathered from an in vitro experiment and show the ability of JC 15 10N to inhibit the migration of endothelial cells (the “minus” values). This migration is a requisite step in the formation of new blood vessels. […] The shading indicates the presence of VEGF ([…] endothelial growth factor). This growth factor causes endothelial cell migration and consequent assembly of blood vessels.
Cell migration was performed as previously described. In brief, a HMEC-1 monolayer was scraped making a 1-mm wide denuded area then stimulated with VEGF and 10N and the area unoccupied by the migrating cells was determined using MetaMorph and expressed as a percentage of control.

[2] = system: angiogenesis in Matrigel deposits imbibed with fibroblast growth factor 1 (FGF1); assay: Matrigel deposit angiogenesis assay (FGF1-loaded Matrigel implanted in mice, histology score); type: in vivo
Excerpt: Matrigel deposits were surgically implanted on both sides of 4 mice per treatment yielding a possible 8 samples per treatment. Matrigel is a polymeric substance that appears to be relatively inert in animals and it can serve as a matrix that allows experimentation in vivo on many different difficult-to-study-processes. Prior to implantation, the Matrigel was allowed to imbibe fibroblast growth factor 1 (FGF1). This protein is a powerful inducer of angiogenesis and its presence guarantees that sufficient activity will be observed within the allotted time period of the experiment. Therefore, any inhibition of angiogenesis is likely to be a real phenomenon as the experiment has been set to heavily favor the angiogenic process. Angiogenesis occurs by day 14 and beginning Day 1 (Day 0=day of implantation), mice were injected IP daily with 20 μg of peptide in 100 μl of normal saline. The animals were sacrificed on Day 14, and each Matrigel deposit divided longitudinally and fixed in 10% buffered formalin. One of the halves of each Matrigel deposit was then sectioned. Read-out for this experiment was via histology, with semi-quantitative/qualitative counting of migration of cells and their subsequent assembly of lumenal structures within the Matrigel. This method allows us to observe the full physiologic spectrum of effects, and was useful in delineating trends. […] In FIG. 13, A represents what a section of a Matrigel gel deposit looks like under the microscope soon after surgical implantation. The sample in B is derived from the control at the conclusion of the experiment. Intense activity is present with numerous cells attaching to the surface of the Matrigel. Cells begin to penetrate the deposit and organize into discrete structures that coalesce to form the beginning of tubes twisting and branching in many directions. These venules eventually connect with the system carrying blood and it is possible to see red cells and lymphocytes within them. This process is called “arborization”, derived from the fact that the angiogenic process most closely resembles the growth of roots and branches of trees. All but two of the peptide treatments looked, more or less, like B (all the peptides of Table 1 were tested). In C, a typical sample from the peptide C-1 treatment is shown. […] Consequently, there were far fewer cells and cellular structures inside of the Matrigel. […] There were large regions of Matrigel that had no visibly associated structures and few single cells, including on the periphery, while other regions had some limited activity.
This system ranks each sample using a 0 to 4 plus (+) scale. Thus, B in FIG. 13 would yield a score of +++ while no + sign would yield a value of 0, as in A in FIG. 13. In Table 3 the data is modified to a numerical form and plotted averages are shown.

[3] = system: arthritis (calcification of joints); assay: Treatment of a patient with arthritis; type: in vivo, human; settings: one patient, subcutaneous 10 mg once a week for one month, then once a month
Protocol: A patient with arthritis was treated by subcutaneous injection of 10 mg once a week for one month and then once a month for maintenance doses. A visible indication of arthritis is calcification of joints.

[4] = system: Feline Immunodeficiency virus FIV; assay: Treatment of a lion infected with FIV; type: in vivo; settings: weekly 70 mg I.M injections
Excerpt: Nasty is a male lion in North Carolina Zoological Park. He was diagnosed to suffer Feline Immunodeficiency virus FIV. FIV attacks the immune system of cats, much like the human immunodeficiency virus (HIV) attacks the immune system of human beings. FIV infects many cell types in its host, including CD4+ and CD8+ T lymphocytes, B lymphocytes, and macrophages. FIV eventually leads to debilitation of the immune system in its feline hosts by the infection and exhaustion of T-helper (CD4+) cells.
Nasty was treated weekly with 70 mg I.M injections of JC15-10N. […] It can be seen that starting of peptide treatment stabilized the CD4+ cell counts.

[5] = 0 to 4 plus scale, 20 μg peptide IP daily, Day 14 histology

Sequence: FAKKFAKKFK [JC15-10N]
- need for diabetic medication (indicating primary tumor regressing) ([1]; 0.5 mg/kg sub-cutaneously per week): required no more diabetic medication
- metastatic disease in the liver ([1]; 0.5 mg/kg sub-cutaneously, 29 mg/injection per week): diminished significantly
- time on peptide with the patient doing fine ([1]; Stage IV pancreatic cancer, 0.5 mg/kg sub-cutaneously per week): more than 19 months
- Endothelial Cell Migration (HMEC-1 monolayer; 10N 100 nM, first series (VEGF 150 ng/ml), VEGF presence marked by shading, not reproduced): 0.42
- Endothelial Cell Migration (HMEC-1 monolayer; 10N 100 nM, second series (VEGF 75 ng/ml)): −1.18
- Endothelial Cell Migration (HMEC-1 monolayer; 10N 100 nM, third series (VEGF 150 ng/ml)): 0.55
- Endothelial Cell Migration (HMEC-1 monolayer; 10N 1 μM, first series (VEGF 150 ng/ml)): −1.57
- Endothelial Cell Migration (HMEC-1 monolayer; 10N 1 μM, second series (VEGF 75 ng/ml)): 0.57
- Endothelial Cell Migration (HMEC-1 monolayer; 10N 1 μM, third series (VEGF 150 ng/ml)): −1.35
- Endothelial Cell Migration (HMEC-1 monolayer; 10N 10 μM, first series (VEGF 150 ng/ml)): 0.90
- Endothelial Cell Migration (HMEC-1 monolayer; 10N 10 μM, second series (VEGF 75 ng/ml)): −1.02
- Endothelial Cell Migration (HMEC-1 monolayer; 10N 10 μM, third series (VEGF 150 ng/ml)): −1.02
- Endothelial Cell Migration (HMEC-1 monolayer; 10N 100 μM, first series (VEGF 150 ng/ml)): 0.80
- Endothelial Cell Migration (HMEC-1 monolayer; 10N 100 μM, second series (VEGF 75 ng/ml)): −1.01
- Endothelial Cell Migration (HMEC-1 monolayer; 10N 100 μM, third series (VEGF 150 ng/ml)): −1.06
- Endothelial Cell Migration (HMEC-1 monolayer; 10N 1 mM, first series (VEGF 150 ng/ml)): −1.01
- Endothelial Cell Migration (HMEC-1 monolayer; 10N 1 mM, second series (VEGF 75 ng/ml)): 0.55
- Endothelial Cell Migration (HMEC-1 monolayer; 10N 1 mM, third series (VEGF 150 ng/ml)): 0.92
- effect on migration of endothelial cells (in words) (HMEC-1 monolayer; in vitro, with VEGF): inhibits this migration even in the presence of VEGF
- angiogenic activity score, Sample 1 [2, 5]: 1
- angiogenic activity score, Sample 2 [2, 5]: 2
- angiogenic activity score, Sample 3 [2, 5]: 2
- angiogenic activity score, Sample 4 [2, 5]: 3
- angiogenic activity score, Sample 5 [2, 5]: 1
- angiogenic activity score, Sample 6 [2, 5]: 2
- angiogenic activity score, Sample 7 [2, 5]: 2
- % Diff. ([2]; difference of mean score from control (2.50)): −25.71%
- angiogenic / anti-angiogenic activity in Matrigel deposit (in words) ([2]; histology, 20 μg peptide IP daily, Day 14): possesses anti-angiogenic activity
- angiogenic activity score, Mean ([2]; mean of samples, control mean 2.50): 1.86
- calcification of the ankle joints (x-ray) [3]: disappeared
- absolute CD4+ cell counts [4]: stabilized
- absolute CD8+ cell counts [4]: prevented the decrease
- weight of the lion [4]: began to rise immediately
